According to US20100311694A1, “Set of Geldanamycin Derivatives and Their Preparation Methods” (Institute of Medicinal Biotechnology, Chinese Academy of …, priority 2008, published 2010):

Experiments:
HBV = assay: Anti-HBV activity (HBV DNA in cell lysate, spot hybridization); type: cell-based; details: HBV DNA content of the cells, reagent solution changed every 4 days
Procedure: Test Procedure for Anti-HBV Activity
Using cell culture method, the preparation of the cells to be tested (100,000 cell's/mL) is inoculated into cell culture plate in 100 μl each well and the cells are cultured 24 h at 37° C. in 5% CO2. Tests are carried out when the cells grow into a monolayer. The target compounds as well as the controls are prepared into a series of solutions of appropriate concentrations using the culture medium and are added into 96 well culture plate respectively in 4 wells per one concentration. Then the reagent solution in each well is changed into the fresh reagent solution with the same concentration every 4 days. A cell control without reagent treatment is simultaneously is set up. The observation index is based upon the pathological changes of the cells by observing the degrees of the pathological changes of the cells under microscope every 8 days. […] Cell control without drug treatment is simultaneously is set up. The reagent solution or control medium in each well is changed into the fresh reagent solution or fresh medium respectively every 4 days. After cytolysis of the cells, HBV DNA is extracted from the cell lysis solution according to the molecular cloning technical procedure. The spots of different samples are hybridized and the A values of different hybridized spots are measured using autoradiograghic technique. The HBV DNA contents in the cell control as well as in the drug treated samples are calculated using the regression equations obtained from the standard curves to obtain half effective concentration values, the results are shown in Table 1.

HIV-1 = assay: Anti HIV-1 activity (HIV-1 P24 antigen in cell cultures); type: cell-based; details: 4 days after addition of the reagents
Procedure: Test Procedure of Anti HIV-1 Activity
8 reagent solutions of different diluted concentrations and positive control solutions are added into cell cultures in 96 well plate respectively. The sample of each diluted solutions is made duplicately and a control cell sample is also is set up. 100 μl of cell sample at a concentration of 2×10^5cells/ml is inoculated into the wells containing reagent in the plate. The cells samples are cultured in a saturated humidity culture chamber (at a 5% CO2 atmosphere) at 37° C. The pathological changes of cells are observed daily.

| Compound | Activity of HBV inhibition IC50 (HBV) [µg/mL] | Activity of HIV inhibition IC50 (HIV-1) [µg/mL] |
| --- | --- | --- |
| COC1C=CC=C(C)C(=O)NC2=CC(=O)C(NCCCN(CCO)CCO)=C(CC(C)CC(OC)C(O)C(C)C=C(C)C1OC(N)=O)C2=O (stereo not shown) [GM-W43] | 0.64 | 0.87 |
| COC1C=CC=C(C)C(=O)NC2=CC(=O)C(NC(c3ccccc3)c3ccccc3)=C(CC(C)CC(OC)C(O)C(C)C=C(C)C1OC(N)=O)C2=O (stereo not shown) [GM-W44] | >100 | >60 |
| COC1C=CC=C(C)C(=O)NC2=CC(=O)C(NCCCN(C)c3ccccc3)=C(CC(C)CC(OC)C(O)C(C)C=C(C)C1OC(N)=O)C2=O (stereo not shown) [GM-W45] | 0.32 | <1.67 |
| COC1C=CC=C(C)C(=O)NC2=CC(=O)C(NCCCN3CCOCC3)=C(CC(C)CC(OC)C(O)C(C)C=C(C)C1OC(N)=O)C2=O (stereo not shown) [GM-W46] | 1.49 | 1.32 |
| COC1C=CC=C(C)C(=O)NC2=CC(=O)C(NCCCN3CCCCC3C)=C(CC(C)CC(OC)C(O)C(C)C=C(C)C1OC(N)=O)C2=O (stereo not shown) [GM-W47] | 3.87 | 1.84 |
| COC1C=CC=C(C)C(=O)NC2=CC(=O)C(NCc3cccs3)=C(CC(C)CC(OC)C(O)C(C)C=C(C)C1OC(N)=O)C2=O (stereo not shown) [GM-W50] | 0.64 | 1.57 |
| COC1C=CC=C(C)C(=O)NC2=CC(=O)C(NCCN3CCCC3)=C(CC(C)CC(OC)C(O)C(C)C=C(C)C1OC(N)=O)C2=O (stereo not shown) [GM-W52] | 0.32 | 0.65 |
| COC1C=CC=C(C)C(=O)NC2=CC(=O)C(NCc3cc(O)co3)=C(CC(C)CC(OC)C(O)C(C)C=C(C)C1OC(N)=O)C2=O (stereo not shown) [GM-W53] | 0.46 | 0.37 |
| COC1C=CC=C(C)C(=O)NC2=CC(=O)C(Nc3cnc(C)c(C)n3)=C(CC(C)CC(OC)C(O)C(C)C=C(C)C1OC(N)=O)C2=O (stereo not shown) [GM-W57] | 8.0 | 13.76 |
| COC1C=CC=C(C)C(=O)NC2=CC(=O)C(NC(CO)C(C)C)=C(CC(C)CC(OC)C(O)C(C)C=C(C)C1OC(N)=O)C2=O (stereo not shown) [GM-W58] | 0.64 | 1.39 |
| CCCCCC(NC1=C2CC(C)CC(OC)C(O)C(C)C=C(C)C(OC(N)=O)C(OC)C=CC=C(C)C(=O)NC(=CC1=O)C2=O)P(=O)(O)O (stereo not shown) [GM-W62] | 0.89 | 1.76 |
| CCC(CO)(CO)NC1=C2CC(C)CC(OC)C(O)C(C)C=C(C)C(OC(N)=O)C(OC)C=CC=C(C)C(=O)NC(=CC1=O)C2=O (stereo not shown) [GM-W63] | 3.2 | 1.37 |
| COC1C=CC=C(C)C(=O)NC2=CC(=O)C(NN3CCN(CCO)CC3)=C(CC(C)CC(OC)C(O)C(C)C=C(C)C1OC(N)=O)C2=O (stereo not shown) [GM-W64] | 8.6 | 3.75 |
| COC1C=CC=C(C)C(=O)NC2=CC(=O)C(NCC3(O)CCCCC3)=C(CC(C)CC(OC)C(O)C(C)C=C(C)C1OC(N)=O)C2=O (stereo not shown) [GM-W65] | 3.1 | 6.81 |
| COC1C=CC=C(C)C(=O)NC2=CC(=O)C(NN3CCOCC3)=C(CC(C)CC(OC)C(O)C(C)C=C(C)C1OC(N)=O)C2=O (stereo not shown) [GM-W68] | 4.6 | 10.46 |
| COC1C=CC=C(C)C(=O)NC2=CC(=O)C(NC3CC(C)(C)N(C)C(C)(C)C3)=C(CC(C)CC(OC)C(O)C(C)C=C(C)C1OC(N)=O)C2=O (stereo not shown) [GM-W69] | 10.8 | 22.23 |
| COC1C=CC=C(C)C(=O)NC2=CC(=O)C(NN3CCCCC3)=C(CC(C)CC(OC)C(O)C(C)C=C(C)C1OC(N)=O)C2=O (stereo not shown) [GM-W72] | 3.2 | 6.45 |
| COC1C=CC=C(C)C(=O)NC2=CC(=O)C(NCC(O)CO)=C(CC(C)CC(OC)C(O)C(C)C=C(C)C1OC(N)=O)C2=O (stereo not shown) [GM-W74] | 8.9 | 0.47 |
| COC1C=CC=C(C)C(=O)NC2=CC(=O)C(NCCCN3CCOCC3)=C(CC(C)CC(OC)C(O)C(C)C=C(C)C1OC(N)=O)C2=O (stereo not shown) [GM-W75] | 0.1 | 1.21 |
| COC1C=CC=C(C)C(=O)NC2=CC(=O)C(NCCCN3CCCC3)=C(CC(C)CC(OC)C(O)C(C)C=C(C)C1OC(N)=O)C2=O (stereo not shown) [GM-W76] | 0.01 | 0.24 |
